# Legend:
# [1] = cited from earlier work
# [2] = tested on: PDX tumor model (575); assay: In vivo PDX model with drug-loaded nanonails; parameters: species or system NCG mice; details: intra-tumoral nanonail, 72 hours
# Method: Drug candidates were mixed with FITC-labeled PEG-5000 with a milligram ratio of 2:8 in a suitable solvent and lyophilized to dryness. Samples of the resultant mixtures (10 mg) were loaded into nanonails (Kibur Medical Inc.), a device invented to test multiple samples in a single tumor. The dimension of the cylindrical device is 4 mm×820 μm containing 18 reservoirs 200 μm wide and 250 μm deep. The loaded devices were kept at −80° C. until tumor implant. NCG mice (female, 8-12 weeks old) from Charles River were injected subcutaneously with 100 μL of LIXF-575 cells per mouse. The body weight of the mice and caliper measurements of the tumors were performed every 3 days until the tumors reached 300-400 mm^3 (about 12 weeks). Nine mice were used for intra-tumoral implantation. […]
# [3] = tested on: HepG2 cells; assay: rtPCR gene expression analysis (TaqMan array card); type: cell-based, human
# Method: Target cancer gene pathways were analyzed using a custom Taqman® array card exploring 90 unique genes associated with cancer related pathways (Kanehisa, Goto et al. 2010).
# Two million HepG2 cells in IMDM media with 20% FBS, and 1% ethanol were seeded in T75 flasks and incubated at 37° C., 7.5% CO2 until 70-80% confluent (approx. […]). […] Untreated cells were included as a negative control. Glyceraldehyde-3-phosphate dehydrogenase (GAPDH) was included as an endogenous control and used for normalization of the data.
# Following a 6-hour incubation with the test compounds, the RNA was extracted using Invitrogen's Dynabead mRNA DIRECT kit using the recommended protocol to provide 50 μL of a purified mRNA solution. Fifty μL of RT master mix was mixed into the mRNA solution and the mixture left to react at 37° C. for 60 minutes. Reverse transcriptase inactivation was performed at 95° C. for 5 minutes and the resulting cDNA samples were kept at 4° C. until use. Fifty-five microliters of TaqMan Fast Advance master mix were added to an equal amount of cDNA sample containing 1 μg/100 μl of cDNA, which was loaded into each card reservoir. The cards were centrifuged twice at 1200 RPM for 3 minutes in a Legend XFR centrifuge and the rtPCR reaction was conducted in a QuantStudio7 PCR instrument using the recommended settings with 40 amplification cycles. Data processing was done using ThermoFisher's Connect™ application.
# [4] = tested on: HepG2 cells; assay: HepG2 cell proliferation assay (XTT); type: cell-based, human; details: IMDM media with 20% FBS and 1% ethanol, read-out: predetermined IC50 concentrations
# Method: HepG2 cells were obtained from the American Type Culture Collection (ATCC). Normal hepatocyte pool of cells was acquired from Xenotech. Cryopreserved cells in DMEM containing 5% DMSO were thawed and diluted 10-fold in phenol red free DMEM media containing 10% fetal bovine serum, 100 μg/ml penicillin/streptomycin, supplemented with Glutamax™ and sodium pyruvate. Subsequently, cells were centrifuged at 20 g for 10 minutes. The cells were resuspended in the same media with added Revitacell® to a concentration of […]. Ninety-six well cell culture treated flat bottom plates were seeded with 7.5×10^3 cells in 100 μl and incubated at 37° C., 7.5% CO2, >95% relative humidity for 18 hours to allow cellular adhesion after which media was replaced with like media (DMEM, IMDM, Williams E) containing 1 to 20% FBS and various test compounds (10 μg/ml to 100 ng/ml). After 48 hours (2 doublings of cells), sodium; 2-(2-methoxy-4-nitro-5-sulfonatophenyl)-3-(2-methoxy-4-nitro-5-sulfophenyl)-N-phenyltetrazol-3-ium-5-carboximidate (XTT) (300 μg/ml) was added, and cells incubated for 2 hours. Formazan production was measured at 450 nm on a Varioskan lux spectrophotometer. Non-specific absorption was measured at 660 nm and subtracted from the reference measurement at 450 nm. Experiments were performed in triplicates (n=3). […]
# The objectives of this example are to, first, establish the procedure of a two-component interaction study; and second, establish a method of analysis to identify potential interactions among the two components/compounds. […] Following 48 hours of incubation, the IC50 values of various mixtures were obtained and compared with the pure compound's IC50 values and predicted/calculated IC50 values for the various mixtures. […]
# Samples from the serial dilutions were analyzed by LC-MS/MS to orthogonally confirm concentrations. […]
# To assess potential interactions, the IC50 values for individual cannabinoids in the control lanes were calculated and used to predict and IC50 value for the summation of their individual components.
# [5] = Cell Cycle, 6 h at IC50 concentration, relative to negative control
# [6] = MAP kinase, 6 h at IC50 concentration, relative to negative control
# [7] = PI3K pathway, 6 h at IC50 concentration, relative to negative control
smiles,measurement,setting,value
"C=C(C)[C@@H]1CCC(C)=C[C@H]1c1c(O)cc(CCCCC)c(C(=O)O)c1O [CBDA, cannabidiolic acid]",times more water soluble compared to CBD,[1]; CBDA versus its decarboxylated counterpart,"about 25,000 times"
same,water solubility,[1],17.5 mg/mL
"CCCCCc1cc2c(c(O)c1C(=O)O)-c1cc(C)ccc1C(C)(C)O2 [CBNA, cannabinolic acid]",cell proliferation (Ki67) in nanonail implanted 575 PDX tumors,[2],not significantly affected
same,ΔΔCt VEGFA,"[3]; Angiogenesis, 6 h at IC50 concentration, relative to negative control",−2.861
same,ΔΔCt BAX,[3]; [5],−1.062
same,ΔΔCt BECN1,[3]; [5],−1.7
same,ΔΔCt CCND2,[3]; [5],−1.539
same,ΔΔCt CCNE1,[3]; [5],−2.445
same,ΔΔCt CDK1,[3]; [5],1.051
same,ΔΔCt CDK2,[3]; [5],1.102
same,ΔΔCt MNT,[3]; [5],−1.868
same,ΔΔCt MITF,"[3]; Drug Resistance, 6 h at IC50 concentration, relative to negative control",−2.367
same,downregulation of the ERBB2/HER2 receptor,"[3]; HepG2, 6 hour timeframe",8 fold
same,ΔΔCt ERBB2,[3]; [6],3.097
same,ΔΔCt MAP1LC3A,[3]; [6],−1.26
same,ΔΔCt MAP2K2,[3]; [6],−1.607
same,ΔΔCt RASA1,[3]; [6],−1.904
same,ΔΔCt PIK3CA,[3]; [7],−1.639
same,ΔΔCt PTEN,[3]; [7],−1.446
same,ΔΔCt SMAD3,"[3]; TGF signaling, 6 h at IC50 concentration, relative to negative control",2.577
same,IC50,[4],20 µM

# — patent publication US20260232699A1, “COMPOSITIONS OF A CANNABINOID AND A KINASE INHIBITOR FOR THE TREATMENT OF CANCER” (SINOVEDA CANADA INC., priority 2023, published 2026)
